The values that follow come from publication PMC8625207, “Antikinetoplastid Activity of Sesquiterpenes Isolated from the Zoanthid Palythoa aff. clavata” (Pharmaceuticals, 2021).

What all share (format): cell-based
Series [1] can be described thus: alamarBlue cytotoxicity on murine macrophages. Particulars: mouse, J774A.1 macrophages; 24 h of incubation; read-out: Macrophages J744A.1 CC50. Background: Alamar Blue is a resazurin reagent that responds to reducing activity.
For series [2], the system named is promastigotes of Leishmania amazonensis strain (MHOM/BR/77/LTB0016). The experiment in a line: alamarBlue activity against promastigotes of L. amazonensis. Particulars: for IC50: Leishmania amazonensis, 72 h of incubation, mean with standard deviation; for Promastigotes L. amazonensis SI: selectivity index CC50/IC50. How it is done:
(§1) For the anti-leishmanicidal experiments, promastigotes and amastigotes of Leishmania amazonensis strain (MHOM/BR/77/LTB0016) and promastigotes of Leishmania donovani strain (MHOM/IN/90/GE1F8R) were used, and they were maintained in RPMI 1640 medium (Gibco, Waltham, MA, USA) at 26 °C. For the trypanocidal experiments, epimastigotes of Trypanosoma cruzi (Y strain) were used, and they were maintained in liver infusion tryptose (LIT) medium supplemented with 10% of fetal bovine serum (FBS) at 26 °C. Murine macrophages J774A.1 (ATCC #TIB-67), maintained in DMEM medium at 37 °C with 5% CO2, were used for the cytotoxic activity assays.
(§2) For the activity against extracellular parasites of kinetoplastid, Leishmania and Trypanosoma parasites, in a 96-well plate, serial dilutions of the compounds were added with dilutions of 10^5 parasites per well and a 10% of alamarBlue Cell Viability Reagent® (Thermo Fisher Scientific, Waltham, MA, USA). After 72 h of incubation at 26 °C, the fluorescence of each well was measured in the EnSpire Multimode Plate Reader® (PerkinElmer, Thermo Fisher Scientific, Madrid, Spain). The inhibitory concentration 50 (IC50) was calculated by nonlinear regression analysis.

Series [3] relates to promastigotes of Leishmania donovani strain (MHOM/IN/90/GE1F8R). In words: alamarBlue activity against promastigotes of L. donovani. Particulars: for IC50: Leishmania donovani, 72 h of incubation, mean with standard deviation; for Promastigotes L. donovani SI: selectivity index CC50/IC50 (macrophages J744A.1 vs parasite). The procedure:
as §1, §2

For series [4], the system named is epimastigotes of Trypanosoma cruzi (Y strain). The experiment in a line: alamarBlue activity against epimastigotes of T. cruzi. The settings on record: for IC50: Trypanosoma cruzi, 72 h of incubation, mean with standard deviation; for Epimastigotes T. cruzi SI: selectivity index CC50/IC50. How it is done:
as §1, §2

Bounds are passed on as bounds.

Take `O=C(Cn1ccnc1[N+](=O)[O-])NCc1ccccc1` [Benznidazole, reference compound]: the CC50 – broadly, the concentration giving 50% cytotoxicity – at 24 h in series [1] was over 1540 µM.

With `C=C1C(=O)O[C@H]2CC(=C)[C@H]3CC[C@@](C)(O)[C@@H](O3)[C@@H](O)[C@H]12` [Isobadgerin (8), isobadgerin], the CC50 at 24 h in series [1] is 89.7 ± 3.92 µM. Further, in series [2], the concentration for half-maximal inhibition (IC50) (usually the concentration needed to halve the response being measured) was over 89.2 µM and the “Promastigotes L. amazonensis SI” value was under 1.01. In addition, in series [3], the IC50 was over 89.2 µM and the “Promastigotes L. donovani SI” value is recorded as under 1.01. In series [4], the IC50 was over 89.2 µM and the “Epimastigotes T. cruzi SI” value was under 1.01.

For `C=C1C(=O)O[C@@H]2/C=C(\C)[C@H](O)CC/C(C)=C/[C@H](OC(C)=O)[C@@H]12` [Tatridin A acetate (5), tatridin A acetate], in series [1], the CC50 at 24 h turned out to be 19.3 ± 0.91 µM. In addition, in series [2], the concentration for half-maximal inhibition (IC50) is over 81.6 µM and the “Promastigotes L. amazonensis SI” value is under 0.24. In series [3], the IC50 was over 81.6 µM and the “Promastigotes L. donovani SI” value is under 0.24. Moreover, in series [4], the IC50 was over 81.6 µM and the “Epimastigotes T. cruzi SI” value is recorded as under 0.24.

On to `C=C1C[C@@H]2OC(=O)C(=C)[C@H]2[C@H](O)/C=C(\C)CCC1=O` [Tamirin (7), Tamirin], for which the CC50 at 24 h in series [1] turned out to be 23.3 ± 1.27 µM. In series [2], the IC50 worked out at 11.7 ± 2.52 µM and the “Promastigotes L. amazonensis SI” value is 1.99. In series [3], the concentration for half-maximal inhibition (IC50) turned out to be 4.13 ± 1.25 µM and the “Promastigotes L. donovani SI” value is 5.65. Moreover, in series [4], the half-maximal inhibitory concentration (IC50) is over 69 µM and the “Epimastigotes T. cruzi SI” value is listed as under 0.34.

With `C=C1C(=O)O[C@H]2CC(=C)[C@H]3CCC(=C)[C@@H](O3)[C@@H](O)[C@H]12` [Dehydroxyisobadgerin (9), dehydroxyisobadgerin], in series [1], the CC50 at 24 h amounted to 50 ± 13.1 µM. In series [2], it took 25.5 ± 3.2 µM to reach half-maximal inhibition (IC50) and the “Promastigotes L. amazonensis SI” value is 1.96. Further, in series [3], inhibition was half-maximal at 34 ± 3.32 µM (IC50) and the “Promastigotes L. donovani SI” value was determined as 1.47. For the same compound, in series [4], the IC50 amounted to 59.8 ± 9.76 µM and the “Epimastigotes T. cruzi SI” value is 0.84.

`C=C1CC[C@@H](C(C)C)/C=C/[C@@](C)(O)CC[C@H]1O` [Nephthediol (10), (−) nephthediol]: in series [1], the CC50 at 24 h is 23.58 ± 0.21 µM. Moreover, in series [2], the IC50 is over 105 µM and the “Promastigotes L. amazonensis SI” value is listed as under 0.22. For the same compound, in series [3], the IC50 was over 105 µM and the “Promastigotes L. donovani SI” value is given as under 0.22. For the same compound, in series [4], the IC50 was over 105 µM and the “Epimastigotes T. cruzi SI” value is under 0.22.

On to `C=C1C(=O)O[C@@H]2[C@H]3C(C)=CC[C@@H](O)[C@]3(C)CC[C@@H]12` [Santamarine (12), santamarine], for which, in series [2], the IC50 is over 101 µM and the “Promastigotes L. amazonensis SI” value is recorded as under 0.77. In addition, in series [3], the IC50 worked out at 12.1 ± 4.67 µM and the “Promastigotes L. donovani SI” value turned out to be 6.35. For the same compound, in series [4], the IC50 came out at 9.74 ± 2.68 µM and the “Epimastigotes T. cruzi SI” value was 7.91.

As for `C=C1CC[C@@H](O)[C@]2(C)CC[C@H]3C(=C)C(=O)O[C@@H]3[C@@H]12` [Reynosin (13), reynosin], in series [2], 40.2 ± 8.78 µM corresponded to half-maximal inhibition (IC50) and the “Promastigotes L. amazonensis SI” value is listed as 1.94. Moreover, in series [3], the IC50 is over 201 µM and the “Promastigotes L. donovani SI” value is reported as under 0.39. Further, in series [4], the IC50 turned out to be 58.2 ± 13.1 µM and the “Epimastigotes T. cruzi SI” value was determined as 1.34.

With `C=C1C(=O)O[C@@H]2/C=C(\C)[C@H](O)CC/C(C)=C/[C@H](O)[C@@H]12` [Tatridin A (4), tatridin A], the CC50 at 24 h in series [1] worked out at 32.4 ± 6.55 µM. Also, in series [2], the IC50 is over 94.6 µM and the “Promastigotes L. amazonensis SI” value was under 0.34. In addition, in series [3], the IC50 is over 94.6 µM and the “Promastigotes L. donovani SI” value is recorded as under 0.34. Moreover, in series [4], the IC50 was over 94.6 µM and the “Epimastigotes T. cruzi SI” value is reported as under 0.34.

Take `C=C1C(=O)O[C@H]2CC(=C)[C@@H](O)CC/C(C)=C/[C@@H](O)[C@H]12` [Tanachin (6), tanachin]: in series [1], the CC50 at 24 h came to 99.2 ± 4.43 µM. Further, in series [2], the IC50 was over 94.6 µM and the “Promastigotes L. amazonensis SI” value was under 1.05. In series [3], the half-maximal inhibitory concentration (IC50) was over 94.6 µM and the “Promastigotes L. donovani SI” value is under 1.05. Besides, in series [4], the IC50 was over 94.6 µM and the “Epimastigotes T. cruzi SI” value is under 1.05.
